Measured values taken from paper PMC3501490 (PLoS ONE, 2012).
Like-named read-outs stand apart in the source and are kept apart here. Where no end group is shown, it is not given here. [ ]: non-standard residue; d: D form. pY = N[C@@H](Cc1ccc(OP(=O)(O)O)cc1)C(=O)O

Assays:
[1] = target: T1, N-terminal SH2 domain of SHP-2 (Homo sapiens, UniProt Q06124); test: SPR (BIAcore 3000), single N-terminal SH2 domain of SHP-2; type: binding; conditions: HBS pH 7.4, 37°C, 10 µl/min
T1 construct: SHP-2 (N)SH2 (His-tag) (OMC #3912); His-tag; host or cells: E. coli BL21(DE3)
T1 sequence (Q06124 6-102 limits assumed): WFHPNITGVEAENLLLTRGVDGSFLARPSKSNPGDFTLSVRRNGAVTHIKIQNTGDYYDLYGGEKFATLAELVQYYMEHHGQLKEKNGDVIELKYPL
Experimental: (§1) These proteins were expressed in BL21(DE3) cells (Invitrogen) induced with 1 mM IPTG for 4 hours at 37°C. Bacteria were pelleted and washed in PBS/0.5 M NaCl prior to sonication in PBS/0.5 M NaCl, in the presence of protease inhibitor cocktail (Complete, EDTA-free, Roche). Soluble and insoluble fractions were separated by centrifugation at 30,000 g for 60 minutes. Soluble fractions containing tagged proteins were incubated for 1 hour at 4°C with end-over-end mixing in the presence of washed Ni-Sepharose (GE Lifesceinces, Little Chalfont, U.K.) supplemented with 40 mM imidazole or Amylose resin (NEB, Herts, U.K). Proteins were eluted according to the manufacturer's instructions and purified by size exclusion chromatography on an AKTApurifier (GE Lifesciences, Little Chalfont, U.K).
Experiments were conducted on a BIAcore™ 3000 in HBS buffer (0.01 M HEPES, pH 7.4, containing 0.15 M NaCl, 3 mM EDTA, and 0.005% v/v P-20, GE Life Sciences, Amersham, UK). Streptavidin was coupled to a research grade CM5 chip (GE Life Sciences, Amersham, UK) as previously described, [13]. Protein-peptide interactions were carried out a rate of 10 µl/min at a constant temperature of 37°C to more accurately reflect physiological conditions. Biotinylated peptides were bound to the streptavidin-coated CM5 chips at 37°C to between 25–50 RU [14]. Purified monomeric SH2 domains were passed over the immobilised peptides at a range of concentrations. Anti-phosphotyrosine monoclonal antibody (Sigma, Poole, U.K.) was passed over the chip to saturation at the end of each experiment to verify peptide coverage on the chip. Binding affinities for the single ITIM/ITSM peptides were determined by plotting equilibrium binding measurements (RU) against SH2 domain protein concentration (Origin 8, OriginLab, MA, USA). KD was defined as the concentration of SH2 protein that gave half maximal binding to the peptide. […] KD was determined as Koff/Kon, which were determined using both GraphPad Prism 5.0 (GraphPad, La Jolla, CA, USA) and BIAevaluation Software (GE Life Sciences, Amersham,UK).

[2] = system: G6B-b tyrosine phosphorylation; test: G6B-b tyrosine phosphorylation in washed human platelets (4G10 staining); type: cell-based; conditions: for G6B-b tyrosine phosphorylation: 1 µg/ml CRP, 5 minutes, 4G10 staining, n = 4; for state of G6B-b phosphorylation: PP2 5 µM, PP3 5 µM or pervanadate, 10 minutes
Experimental: One microgram of antibody was bound to 10 µl of Protein A-sepharose (20 µl of a 50% slurry), in a final volume of 100 µl PBS, by incubation on a rotating wheel for 90 minutes at 4°C. Washed human platelets were incubated with either Tyrodes, 5 µM PP2, 5 µM PP3 or pervanadate for 10 minutes, after which they were pelleted and lysed in DP lysis buffer (20 mM Tris pH 7.5, 150 mM NaCl, 5 mM NaOV4, 1× Complete Protease Inhibitor (Roche) and 5% w/v n-Dodecyl-β-D-maltoside (Calbiochem)) such that each IP sample received 4×10^8 platelets in a final volume of 100 µl DP lysis buffer. Samples were mixed on a rotating wheel at 4°C for 1 hour. Samples were washed once in 200 µl DP lysis buffer and twice in 1 ml PBS prior to boiling in Laemmli buffer for 5 minutes.
We wanted to determine whether SHP-2 could associate with the receptor in human platelets as this interaction could relate to receptor function and regulation of GPVI signalling. […] In the absence of receptor agonists, we carried out co-immunoprecipitation experiments in platelet lysates treated with the SFK inhibitor, PP2, its non-active analogue, PP3, or the tyrosine phosphatase inhibitor, pervanadate. […] Under these conditions, isolation of […] by immunoprecipitation was robust (Figure 1B, top panel).
(A) Washed human platelets were incubated under stirring, but non-aggregating, conditions with the SFK inhibitor, PP2, or DMSO, prior to the addition of 1 µg/ml CRP or Tyrodes buffer. Samples were collected after 5 minutes. Tyrosine phosphorylation was detected by 4G10 staining (top panel, n = 4). […] (B) G6B-b co-immunoprecipitates with […] in pervanadate-treated washed human platelets.

[3] = system: washed human platelets (collagen); test: Light transmission aggregometry of TAT-peptide-loaded platelets, collagen; type: cell-based; conditions: vehicle (DMSO) control; light transmission aggregometry
Experimental: (§2) Whole blood was taken from healthy volunteers and collected into 50 ml syringes containing 5 ml acid citrate-dextrose (ACD) in accordance with procedures approved by the Local Research Ethics Committee (Ref: 07/Q1603/17). Platelet-rich plasma (PRP) was isolated by centrifugation at 200 g for 10 minutes at room temperature. PRP was pooled and 10 µg PGI2 was added before centrifugation at 1000 g for 10 minutes at room temperature. Platelets were resuspended in 1 ml Tyrodes buffer (134 mM NaCl, 0.34 mM Na2HPO4, 2.9 mM KCl, 12 mM NaHCO3, 20 mM HEPES, 5 mM glucose, 1 mM MgCl2, pH 7.3) pre-warmed to 30°C and 150 µl ACD. The volume was adjusted to 25 ml with Tyrodes buffer, followed by 3 ml ACD and 1.25 µg PGI2. Cells were centrifuged at 1000 g for 10 minutes at room temperature and the resultant cell pellet was resuspended in 1 ml pre-warmed Tyrodes buffer before adjusting the volume to a final cell density of 4×10^8 cells/ml (aggregations) or 2×10^9 cells/ml (peptide pull downs). Where appropriate, 1 mM EGTA, 10 µM indomethacin and 2 U/ml apyrase were added to inhibit aggregations (referred to as non-aggregating conditions).
(§3) Fluorescein-labelled, TAT-G6B-b peptides were synthesised by Peptide Protein Research Ltd (Hampshire, U.K.). Peptides were either unphosphorylated, or phosphorylated at both ITIMs as follows: Dual phosphorylated peptide – FLUO- […]*[…]*AVVV or unphosphorylated control peptide (lacking tyrosine phosphorylation) - FLUO- […]. TAT sequences are underlined and phosphorylated tyrosines marked with an asterisk. Peptides were loaded into washed platelets by incubation with 10 µM peptide for 15 minutes at 30°C, after which they were assessed by light transmission aggregometry. Peptide loading conditions were optimised and verified by flow cytometry.
(§4) Washed human platelets were loaded with TAT-G6B-b peptides (either dual phosphorylated or unphosphorylated) and changes in CRP efficacy determined by light transmission aggregometry. […] Thrombin-mediated activation was unaffected (data not shown). […] Peptide loading was verified by flow cytometry (Figure 9C and 9D.

[4] = system: G6B-b dual phosphopeptide; test: SPR (BIAcore 3000) of SHP-1/SHP-2 tandem SH2 domains over immobilised G6B-b phosphopeptide; type: binding, human; conditions: for Koff / Kd: HBS pH 7.4, 37°C, 50 µl/min; for Koff: Prism 5; for Kd: KD = Koff/Kon
Experimental: Experiments were conducted on a BIAcore™ 3000 in HBS buffer (0.01 M HEPES, pH 7.4, containing 0.15 M NaCl, 3 mM EDTA, and 0.005% v/v P-20, GE Life Sciences, Amersham, UK). Streptavidin was coupled to a research grade CM5 chip (GE Life Sciences, Amersham, UK) as previously described, [13]. Protein-peptide interactions were carried out a rate of 10 µl/min at a constant temperature of 37°C to more accurately reflect physiological conditions. Biotinylated peptides were bound to the streptavidin-coated CM5 chips at 37°C to between 25–50 RU [14]. Purified monomeric SH2 domains were passed over the immobilised peptides at a range of concentrations. Anti-phosphotyrosine monoclonal antibody (Sigma, Poole, U.K.) was passed over the chip to saturation at the end of each experiment to verify peptide coverage on the chip. Binding affinities for the single ITIM/ITSM peptides were determined by plotting equilibrium binding measurements (RU) against SH2 domain protein concentration (Origin 8, OriginLab, MA, USA). KD was defined as the concentration of SH2 protein that gave half maximal binding to the peptide. For the 60-mer peptides, SH2 domains were passed over the chip surface at 50 µl/min. KD was determined as Koff/Kon, which were determined using both GraphPad Prism 5.0 (GraphPad, La Jolla, CA, USA) and BIAevaluation Software (GE Life Sciences, Amersham,UK).
Previous studies have shown that using single phosphomotifs (isolated from sequences in which they may exist in tandem) and single SH2 domains can be misleading, [16]. We, therefore, assessed phosphatase-G6B-b interactions in more detail using the tandem SH2 domains of both SHP-2 (Figure 4A) and SHP-1 (Figure 4B). We kinetically determined the binding affinity (KD = koff/kon) by SPR at physiological temperatures.

endogenous G6B-b = test: Pull down of endogenous G6B-b from platelet lysate with purified SH2 domains; type: binding; conditions: washed human platelet lysates activated with CRP or thrombin
Experimental: as §1, with “Proteins were eluted according to the manufacturer's instructions and purified by size exclusion chromatography on an AKTApurifier (GE Lifesciences, Little Chalfont, U.K).” left out
Based on this study, the N-terminal SH2 domains of both SHP-1 and SHP-2 should preferentially bind to the ITIM (central pY at position 211) while the C-terminal domains should associate with the ITSM (pY at position 237). […] The N-terminal SH2 domain of SHP-1 was insoluble and it was not possible to purify sufficient quantities for binding studies. […]
(A) Peptide associated material was isolated from pre-cleared lysates separated on 4–12% NuPage Bis-Tris gels; proteins identified by Western Blotting (representative blots, n = 3). […] Bound material was separated from unbound material by SDS-PAGE and quantified (n = 3, SEM, ** denotes p<0.01, * denotes p<0.05). […]

[5] = system: washed human platelets (CRP); test: Light transmission aggregometry of TAT-peptide-loaded platelets, CRP; type: cell-based; conditions: vehicle (DMSO) control; light transmission aggregometry
Experimental: as §2, §3, §4

With “PLVKTEPQRPVKEEEPKIPGDLDQEPSLL[pY]ADLDHLALSRPRRLSTADPADASTIYAVVV [pY211]” the Kd ([1]; equilibrium binding, single site fitting, read-out: KD) was 110 nM.
“PLVKTEPQRPVKEEEPKIPGDLDQEPSLLYADLDHLALSRPRRLSTADPADASTI[pY]AVVV [pY237]” gave a Kd ([1]; read-out: KD, estimated by fixing maximum binding) of 10000 nM.
`Nc1ncnc2c1cnn2-c1ccccc1` [PP3] was tested, and the “G6B-b tyrosine phosphorylation” value [2] was “no effect on tyrosine phosphorylation” and the “state of G6B-b phosphorylation” value [2] was “partial/sub-maximal”.
collagen [reference compound] was tested, and the “EC50 of collagen, vehicle control platelets” value [3] was 0.4 µg/mL.
With `CC(C)(C)n1nc(-c2ccc(Cl)cc2)c2c(N)ncnc21` [PP2] the “G6B-b tyrosine phosphorylation” value [2] was “reduced the G6B-b tyrosine phosphorylation in response to CRP” and the “state of G6B-b phosphorylation” value [2] was “non-phosphorylation”.
In the case of “SHP-1: SHP-1 (N+C)SH2 domains, recombinant”, the Koff ([4]; tandem SH2 domains 0.1 nM) is reported as 0.0104 s⁻¹, the Kd ([4]; tandem SH2 domains 0.1 nM) is reported as 43.3 nM and the Koff ([4]; tandem SH2 domains 1 nM) is reported as 0.01106 s⁻¹. The Kd ([4]; tandem SH2 domains 1 nM) was 42.5 nM, the Koff ([4]; tandem SH2 domains 10 nM) was 0.01141 s⁻¹ and the Kd ([4]; tandem SH2 domains 10 nM) was 20.3 nM. It also gave a Koff ([4]; tandem SH2 domains 100 nM) of 0.01025 s⁻¹, a Kd ([4]; tandem SH2 domains 100 nM) of 32 nM and a Koff ([4]; tandem SH2 domains 1000 nM) of 0.00892 s⁻¹. The “isolation of endogenous G6B-b” value (endogenous G6B-b) was “able to isolate endogenous G6B-b from platelet lysate”.
In the case of “SHP-2: SHP-2 (N+C)SH2 domains, recombinant”, the “fold higher binding affinity of SHP-2 tandem SH2 domains than single N(SH2) domain” value ([4]; SPR, dual phosphopeptide) is reported as “approximately 200 fold”, the Koff ([4]; tandem SH2 domains 0.1 nM) is reported as 0.0720 s⁻¹ and the Kd ([4]; tandem SH2 domains 0.1 nM) is reported as 0.474 nM. It also gave a Koff ([4]; tandem SH2 domains 1 nM) of 0.1660 s⁻¹, a Kd ([4]; tandem SH2 domains 1 nM) of 0.624 nM and a Koff ([4]; tandem SH2 domains 10 nM) of 0.0206 s⁻¹. For the same molecule, the Kd ([4]; tandem SH2 domains 10 nM) was 0.145 nM, the Koff ([4]; tandem SH2 domains 100 nM) was 0.0144 s⁻¹ and the Kd ([4]; tandem SH2 domains 100 nM) was 0.528 nM. For the same molecule, the Koff ([4]; tandem SH2 domains 1000 nM) was 0.0106 s⁻¹, the Kd ([4]; tandem SH2 domains 1000 nM) was 0.634 nM and the “isolation of endogenous G6B-b” value (endogenous G6B-b) was “able to isolate G6B-b from platelet lysate”.
For “collagen-related peptide [CRP, reference compound]”, the “EC50 of CRP, vehicle control platelets” value [5] was 0.4 µg/mL.
With pervanadate the “state of G6B-b phosphorylation” value [2] was “maximal phosphorylation”.
